Results: US20260007133A1, “HERBICIDAL COMPOSITION COMPRISING AZINE COMPOUNDS” (BASF SE, priority 2022, published 2026)
Where two headings read alike, the source gives them in different places.

Tests used:
Format in all cases: in vivo
Brachiaria decumbens = assay: Greenhouse pre-emergence (PRE) herbicidal test on BRADC; settings: Urochloa decumbens, PRE, BRADC
Description: (§1) The culture containers used were plastic pots containing loamy sand with approximately 3.0% of humus as substrate. The seeds of the test plants were sown separately for each species.
(§2) For the pre-emergence treatment, the active compounds, suspended or emulsified in water, were applied directly after sowing by means of finely distributing nozzles. The containers were irrigated gently to promote germination and growth and subsequently covered with transparent plastic hoods until the plants had rooted. This cover caused uniform germination of the test plants unless this was adversely affected by the active compounds.
(§3) Depending on the species, the plants were kept at 10-25° C. and 20-35° C., respectively.
(§4) The test period extended over 2 to 4 weeks. During this time, the plants were tended and their response to the individual treatments was evaluated.
(§5) Evaluation was carried out using a scale from 0 to 100. 100 means no emergence of the plants, or complete destruction of at least the above-ground parts, and 0 means no damage or normal course of growth. A good herbicidal activity is given at values of at least 70, and very good herbicidal activity is given at values of at least 85.
(§6) If not stated differently, the respective components A and B, and if appropriate, C were formulated as a 5% by weight strength emulsion concentrate and, with addition of the amount of solvent system, introduced into the spray liquor used for applying the active compound.
(§7) As indicated application was either post emergent (POST) at the respective growth stage (GS) of the weed (BBCH code), or pre-emergent (PRE).
(§8) Assessment was 20 days after treatment (DAT).

Euphorbia heterophylla = assay: Greenhouse pre-emergence (PRE) herbicidal test on EPHHL; settings: Euphorbia heterophylla, pre-emergence, PRE
How it was run: (§9)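 Scoring ran from 0 (normal growth) to 100 (no emergence or above-ground parts fully destroyed) and was done 20 DAT. Application was pre-emergent in pots of loamy sand (~3.0% humus) sown per species. Plants grew at 10-25° C or 20-35° C by species.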

Galium aparine = assay: Greenhouse pre-emergence (PRE) herbicidal test on GALAP; settings: Galium aparine, pre-emergence; PRE; GALAP; use rate 200 gai/ha
Description: as §1, §2, §3, §4, §5, §6, §7, §8

Polygonum convolvulus = assay: Greenhouse pre-emergence (PRE) herbicidal test on POLCO; settings: Fallopia convolvulus, pre-emergence
Description: as §1, §2, §3, §4, §5, §6, §7, §8

Geranium pusillum [1] = assay: Greenhouse pre-emergence (PRE) herbicidal test on GERPU; settings: Geranium pusillum, pre-emergence, PRE; GERPU; use rate 200 gai/ha
Description: as §1, §2, §3, §4, §5, §6, §7, §8

Lolium multiflorum = assay: Greenhouse pre-emergence (PRE) herbicidal test on LOLMU; settings: PRE
How it was run: as §9

AMAPA [2] = assay: Greenhouse pre-emergence (PRE) herbicidal test on AMAPA; settings: use rate 3.1 gai/ha, 20 DAT
Ambrosia artemisiifolia = assay: Greenhouse pre-emergence (PRE) herbicidal test on AMBEL; settings: PRE, 20 DAT
AMAPA [3] = assay: Greenhouse post-emergence (POST) herbicidal test on AMAPA; settings: use rate 12.5 gai/ha, 20 DAT
Commelina benghalensis [4] = assay: Greenhouse post-emergence (POST) herbicidal test on COMBE; settings: 480 h, use rate 1.25 gai/ha, 20 DAT
Experimental: as §1
(§10) For the post-emergence treatment, the test plants were grown to a plant height of from 3 to 15 cm, depending on the plant habit, and only then treated with the active compounds which had been suspended or emulsified in water. To this end, the test plants were either sown directly, and grown in the same containers, or they were first grown separately as seedlings and transplanted into the test containers a few days prior to treatment.
as §3, §4, §5, §6, §7, §8

Abutilon theophrasti [5] = assay: Greenhouse pre-emergence (PRE) herbicidal test on ABUTH; settings: Abutilon theophrasti, pre-emergence, 480 h, PRE, ABUTH, 1.25 gai/ha, 20 DAT; read-out: % activity solo application
How it was run: as §9

Ipomoea hederacea [6] = assay: Greenhouse pre-emergence (PRE) herbicidal test on IPOHE; settings: Ipomoea hederacea, pre-emergence, 480 h, PRE, IPOHE, 20 DAT
Description: as §1, §2, §3, §4, §5, §6, §7, §8

Commelina benghalensis [7] = assay: Greenhouse pre-emergence (PRE) herbicidal test on COMBE; settings: Commelina benghalensis, pre-emergence, 480 h, PRE, COMBE, 1.25 gai/ha, 20 DAT; read-out: % activity solo application
How it was run: as §9

Ipomoea hederacea [8] = assay: Greenhouse post-emergence (POST) herbicidal test on IPOHE; settings: Ipomoea hederacea, post-emergence, 480 h, POST, IPOHE, 20 DAT, read-out: % activity solo application
How it was run: (§11)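 Plants grown in pots of loamy sand (~3.0% humus) to 3–15 cm height, then sprayed with compounds suspended or emulsified in water (formulated as 5% by weight emulsion concentrate). Kept at 10-25° C or 20-35° C by species; injury scored 0–100 (100 = complete destruction) at 20 DAT.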

Amaranthus retroflexus [9] = assay: Greenhouse pre-emergence (PRE) herbicidal test on AMARE; settings: Amaranthus retroflexus, pre-emergence, 480 h; PRE, AMARE, 1.25 gai/ha, 20 DAT; read-out: % activity solo application
How it was run: as §9

Geranium pusillum [10] = assay: Greenhouse post-emergence (POST) herbicidal test on GERPU; settings: Geranium pusillum, post-emergence, 480 h, POST, GERPU, 20 DAT
How it was run: as §11

Amaranthus retroflexus [11] = assay: Greenhouse post-emergence (POST) herbicidal test on AMARE; settings: Amaranthus retroflexus, post-emergence, 480 h, POST, AMARE, 20 DAT, read-out: % activity solo application
How it was run: as §11

Alopecurus myosuroides = assay: Greenhouse pre-emergence (PRE) herbicidal test on ALOMY; settings: Alopecurus myosuroides, pre-emergence, 480 h, PRE, ALOMY, 20 DAT, read-out: % activity solo application
How it was run: as §9

Setaria viridis [12] = assay: Greenhouse post-emergence (POST) herbicidal test on SETVI; settings: 480 h, use rate 5 gai/ha, 20 DAT
Experimental: as §1, §10, §3, §4, §5, §6, §7, §8

Digitaria sanguinalis = assay: Greenhouse post-emergence (POST) herbicidal test on DIGSA; settings: Digitaria sanguinalis, post-emergence, 480 h, POST, DIGSA, 5 gai/ha, 20 DAT; read-out: % activity solo application
How it was run: as §11

Echinochloa crus-galli = assay: Greenhouse pre-emergence (PRE) herbicidal test on ECHCG; settings: Echinochloa crus-galli, pre-emergence, 480 h, PRE, ECHCG, 20 DAT, read-out: % activity solo application
Abutilon theophrasti [13] = assay: Greenhouse post-emergence (POST) herbicidal test on ABUTH; settings: Abutilon theophrasti, post-emergence, 480 h, POST, ABUTH, 20 DAT, read-out: % activity solo application
How it was run: as §11

Setaria viridis [14] = assay: Greenhouse pre-emergence (PRE) herbicidal test on SETVI; settings: Setaria viridis, pre-emergence, 480 h, PRE, SETVI, 20 DAT, read-out: % activity solo application
How it was run: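 Visual rating on a 0 (normal growth) to 100 (no emergence or above-ground kill) scale at 20 DAT. Treatment was pre-emergence spray of aqueous suspension/emulsion right after sowing into loamy sand with ~3.0% humus; covered until rooted, grown at 10-25° C or 20-35° C depending on species.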

SMILES: CCCOCCN(C(=O)CCl)c1c(CC)cccc1CC [Pretilachlor, pretilachlor]
- inhibition at 25 g/ha (Brachiaria decumbens; use rate 25 gai/ha): 0%
- inhibition at 200 g/ha (Brachiaria decumbens; use rate 200 gai/ha): 40%
- inhibition at 25 g/ha (Euphorbia heterophylla; EPPHL, use rate 25 gai/ha): 0%
- inhibition at 200 g/ha (Euphorbia heterophylla; EPPHL, use rate 200 gai/ha): 10%
- inhibition at 200 g/ha (Galium aparine): 15%
- inhibition at 25 g/ha (Polygonum convolvulus; use rate 25 gai/ha): 0%
- inhibition at 200 g/ha (Polygonum convolvulus; use rate 200 gai/ha): 30%
- inhibition at 200 g/ha (Geranium pusillum [1]): 45%
- inhibition at 25 g/ha (Lolium multiflorum; Lolium multiflorum, pre-emergence, LOLMU, use rate 25 gai/ha): 0%

SMILES: C#CCN(C)c1c(C#N)cnn1-c1nn2c(c1Cl)CCCC2 [Pyraclonil, pyraclonil]
- % activity (AMAPA [2]): 50%
- % activity (Ambrosia artemisiifolia; use rate 12.5 gai/ha): 0%
- % activity (AMAPA [3]): 90%
- % activity (Lolium multiflorum; use rate 12.5 gai/ha, 20 DAT): 0%

SMILES: CC(C)N(C)S(=O)(=O)NC(=O)c1cc(-n2c(=O)cc(C(F)(F)F)n(C)c2=O)c(F)cc1Cl [Saflufenacil, saflufenacil]
- inhibition at 1.25 g/ha (Commelina benghalensis [4]): 60%
- inhibition at 1.25 g/ha (Euphorbia heterophylla; 480 h, EPHHL, 1.25 gai/ha, 20 DAT, read-out: % activity solo application): 5%
- inhibition at 5 g/ha (Euphorbia heterophylla; 480 h, EPHHL, 5 gai/ha, 20 DAT, read-out: % activity solo application): 50%
- inhibition at 1.25 g/ha (Abutilon theophrasti [5]): 10%
- inhibition at […] (Ipomoea hederacea [6]; use rate 2.5 gai/ha): 5%
- inhibition at 5 g/ha (Ipomoea hederacea [6]; use rate 5 gai/ha): 25%
- inhibition at 1.25 g/ha (Commelina benghalensis [7]): 5%
- inhibition at 1.25 g/ha (Ipomoea hederacea [8]; 1.25 gai/ha): 0%
- inhibition at 5 g/ha (Ipomoea hederacea [8]; 5 gai/ha): 10%
- inhibition at 1.25 g/ha (Amaranthus retroflexus [9]): 0%
- inhibition at 1.25 g/ha (Ambrosia artemisiifolia; Ambrosia artemisiifolia, pre-emergence, 480 h, AMBEL, 1.25 gai/ha, read-out: % activity solo application): 0%
- inhibition at 5 g/ha (Ambrosia artemisiifolia; Ambrosia artemisiifolia, pre-emergence, 480 h, AMBEL, 5 gai/ha, read-out: % activity solo application): 50%
- inhibition at […] (Geranium pusillum [10]; use rate 2.5 gai/ha): 60%
- inhibition at 5 g/ha (Geranium pusillum [10]; use rate 5 gai/ha, read-out: % activity): 80%
- inhibition at 1.25 g/ha (Amaranthus retroflexus [11]; 1.25 gai/ha): 0%
- inhibition at 5 g/ha (Amaranthus retroflexus [11]; 5 gai/ha): 0%
- inhibition at 1.25 g/ha (Alopecurus myosuroides; 1.25 gai/ha): 20%
- inhibition at 5 g/ha (Alopecurus myosuroides; 5 gai/ha): 10%
- inhibition at 5 g/ha (Setaria viridis [12]): 60%
- inhibition at 5 g/ha (Digitaria sanguinalis): 0%
- inhibition at 1.25 g/ha (Echinochloa crus-galli; 1.25 gai/ha): 0%
- inhibition at 5 g/ha (Echinochloa crus-galli; 5 gai/ha): 0%
- inhibition at 1.25 g/ha (Abutilon theophrasti [13]; 1.25 gai/ha): 5%
- inhibition at 5 g/ha (Abutilon theophrasti [13]; 5 gai/ha): 10%
- inhibition at 1.25 g/ha (Setaria viridis [14]; 1.25 gai/ha): 0%
- inhibition at 5 g/ha (Setaria viridis [14]; 5 gai/ha): 0%
- inhibition at 1.25 g/ha (Lolium multiflorum; Lolium multiflorum, pre-emergence, 480 h, LOLMU, 1.25 gai/ha, 20 DAT, read-out: % activity solo application): 0%
- inhibition at 5 g/ha (Lolium multiflorum; Lolium multiflorum, pre-emergence, 480 h, LOLMU, 5 gai/ha, 20 DAT, read-out: % activity solo application): 0%
- inhibition at 5 g/ha (Lolium multiflorum; Lolium multiflorum, pre-emergence, 480 h, LOLMU, use rate 5 gai/ha, 20 DAT, read-out: % activity): 45%
